Assay results published in ChEMBL document CHEMBL3217743, “Reduction of acyl glucuronidation in a series of acidic 11-hydroxysteroid dehydrogenase type 1 (11-HSD1) inhibitors: the discovery of AZD6925” (Medchemcomm, 2012).
pIC50: −log10 of the molar value. Active and inactive are the calls of the source. The rule behind the calls is not given here.

Key:
CYP1A2 = molecular target: T1, CYP1A2 (Homo sapiens, UniProt P05177); test: Inhibition of CYP1A2 (unknown origin) at 10 uM relative to control; assay type: ADME
T1 sequence (P05177 whole entry): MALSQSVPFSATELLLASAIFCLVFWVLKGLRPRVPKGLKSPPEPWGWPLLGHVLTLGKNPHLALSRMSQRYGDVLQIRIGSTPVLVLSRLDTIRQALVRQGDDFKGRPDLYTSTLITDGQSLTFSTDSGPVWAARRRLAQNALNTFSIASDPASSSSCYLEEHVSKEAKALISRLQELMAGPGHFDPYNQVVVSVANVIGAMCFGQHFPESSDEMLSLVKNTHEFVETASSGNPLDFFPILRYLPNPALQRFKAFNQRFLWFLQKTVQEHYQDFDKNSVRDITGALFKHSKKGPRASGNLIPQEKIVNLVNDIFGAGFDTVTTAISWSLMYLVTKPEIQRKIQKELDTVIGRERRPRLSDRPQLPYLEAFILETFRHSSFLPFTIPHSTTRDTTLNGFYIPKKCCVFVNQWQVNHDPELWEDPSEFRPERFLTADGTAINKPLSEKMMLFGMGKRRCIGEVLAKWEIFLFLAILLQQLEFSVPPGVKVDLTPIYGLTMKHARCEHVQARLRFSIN

[1] = molecular target: T2, 11-beta-hydroxysteroid dehydrogenase type 2 (Homo sapiens, UniProt P80365); test: Inhibition of recombinant 11beta-HSD2 (unknown origin) assessed as conversion of cortisol to cortisone after 40 mins by fluorescence assay
T2 sequence (P80365 whole entry): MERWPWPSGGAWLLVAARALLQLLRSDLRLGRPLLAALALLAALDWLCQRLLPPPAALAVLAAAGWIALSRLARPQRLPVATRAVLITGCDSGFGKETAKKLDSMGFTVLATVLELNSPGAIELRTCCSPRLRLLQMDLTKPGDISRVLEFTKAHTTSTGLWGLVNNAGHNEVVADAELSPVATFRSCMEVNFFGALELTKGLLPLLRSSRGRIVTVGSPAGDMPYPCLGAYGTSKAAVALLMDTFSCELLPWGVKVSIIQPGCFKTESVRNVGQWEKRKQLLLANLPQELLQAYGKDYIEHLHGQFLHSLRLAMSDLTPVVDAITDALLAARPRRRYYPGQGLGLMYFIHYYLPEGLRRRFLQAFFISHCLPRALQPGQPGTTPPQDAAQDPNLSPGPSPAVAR

[2] = molecular target: T3, 17-beta-hydroxysteroid dehydrogenase type 1 (Homo sapiens) (UniProt P14061); test: Inhibition of recombinant 17beta-HSD1 (unknown origin) assessed as conversion of estrone to estradiol at 10 uM after 20 mins by scintillation counting analysis relative to control
T3 sequence (whole entry): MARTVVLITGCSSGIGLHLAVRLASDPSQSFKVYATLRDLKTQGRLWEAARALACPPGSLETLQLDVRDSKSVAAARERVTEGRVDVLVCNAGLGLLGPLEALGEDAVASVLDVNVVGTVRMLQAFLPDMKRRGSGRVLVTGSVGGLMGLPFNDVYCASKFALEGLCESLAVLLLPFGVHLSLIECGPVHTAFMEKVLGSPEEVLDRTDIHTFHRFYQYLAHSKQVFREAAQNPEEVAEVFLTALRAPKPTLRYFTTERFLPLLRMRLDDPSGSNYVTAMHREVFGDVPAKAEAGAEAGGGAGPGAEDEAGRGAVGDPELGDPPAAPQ

[3] = Drug excretion in bile duct cannulated rat bile assessed as compound remaining by HPLC analysis; assay type: ADME, tissue-based; settings: in vivo
[4] = Drug metabolism in rat hepatocytes assessed as compound remaining by LC-MS/MS analysis; assay type: ADME, cell-based, Hepatocyte
[5] = Clearance in rat hepatocytes measured per 10^6 cells; assay type: ADME, cell-based, Hepatocyte; settings: read-out: CLH
L5178Y = test: Mutagenicity in mouse L5178Y cells by mouse lymphoma assay; assay type: toxicity, cell-based
CYP3A4 = CYP3A4 (Homo sapiens, UniProt P08684); test: Inhibition of CYP3A4 (unknown origin) at 10 uM relative to control; assay type: ADME
CYP3A4, sequence (P08684 whole entry): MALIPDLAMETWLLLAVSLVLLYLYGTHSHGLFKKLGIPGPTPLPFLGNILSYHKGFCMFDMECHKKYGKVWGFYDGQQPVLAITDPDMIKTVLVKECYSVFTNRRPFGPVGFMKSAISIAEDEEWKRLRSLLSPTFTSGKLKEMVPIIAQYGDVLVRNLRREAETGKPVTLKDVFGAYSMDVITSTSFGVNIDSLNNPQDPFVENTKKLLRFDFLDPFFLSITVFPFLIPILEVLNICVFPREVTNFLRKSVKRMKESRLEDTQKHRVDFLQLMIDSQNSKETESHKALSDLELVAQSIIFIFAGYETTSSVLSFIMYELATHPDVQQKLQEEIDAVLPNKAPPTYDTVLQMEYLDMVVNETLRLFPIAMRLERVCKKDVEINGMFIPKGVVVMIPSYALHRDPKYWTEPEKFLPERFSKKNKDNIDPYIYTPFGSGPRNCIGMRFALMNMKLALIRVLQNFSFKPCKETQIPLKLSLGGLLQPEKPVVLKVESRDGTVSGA

[6] = Fraction unbound in rat plasma by equilibrium dialysis technique; assay type: ADME, cell-free
Mus musculus = test: Ex vivo inhibition of 11beta-HSD1-mediated conversion of [3H]-cortisone to [3H]-cortisol in C57Bl6J mouse liver at 30 mg/kg, po by scintillation counting analysis; assay type: functional, organism-based; set-up: dose 30 mg/kg
[7] = Apparent permeability from basolateral to apical side in MDCK cells at 10 uM; assay type: ADME, cell-based, Canis lupus familiaris; settings: dog
[8] = Half life in mouse at 1 to 3 mg/kg, po; assay type: ADME, organism-based; set-up: dose 1-3 mg/kg, route oral; settings: in vivo
[9] = Fraction unbound in mouse plasma by equilibrium dialysis technique; assay type: ADME, cell-free
[10] = Volume of distribution at steady state in mouse at 1 to 3 mg/kg; assay type: ADME, organism-based; set-up: dose 1-3 mg/kg; settings: in vivo, read-out: Vdss
[11] = Volume of distribution at steady state in rat at 1 to 3 mg/kg; assay type: ADME, organism-based; set-up: dose 1-3 mg/kg; settings: in vivo, read-out: Vdss
[12] = molecular target: T4, 11-beta-hydroxysteroid dehydrogenase 1 (Homo sapiens, UniProt P28845)
T4 sequence (P28845 whole entry): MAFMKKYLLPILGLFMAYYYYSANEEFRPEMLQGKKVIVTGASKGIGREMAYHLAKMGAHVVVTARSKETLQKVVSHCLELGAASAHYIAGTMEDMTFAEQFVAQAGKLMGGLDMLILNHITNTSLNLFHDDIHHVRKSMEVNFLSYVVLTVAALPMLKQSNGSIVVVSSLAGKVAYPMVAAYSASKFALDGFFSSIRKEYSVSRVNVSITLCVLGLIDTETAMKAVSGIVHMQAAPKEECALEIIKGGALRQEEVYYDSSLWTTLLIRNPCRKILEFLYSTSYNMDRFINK
Description: Inhibition of N-terminal 6-His-tagged human full length 11beta-HSD1 assessed as conversion of cortisone to cortisol after 25 mins by HTRF assay

[13] = Inhibition of N-terminal 6-His-tagged dog full length 11beta-HSD1 assessed as conversion of cortisone to cortisol after 25 mins by HTRF assay; set-up: species or system Canis lupus familiaris
[14] = Half life in dog at 1 to 3 mg/kg, po; assay type: ADME, organism-based, Canis lupus familiaris; set-up: dose 1-3 mg/kg, route oral; settings: in vivo
[15] = Plasma clearance in dog at 1 to 3 mg/kg; assay type: ADME, organism-based, Canis lupus familiaris; set-up: dose 1-3 mg/kg
[16] = Drug excretion in bile duct cannulated rat urine assessed as compound remaining by HPLC analysis; assay type: ADME, tissue-based; settings: read-out: Stability
[17] = Half life in rat at 1 to 3 mg/kg, iv; assay type: ADME, organism-based; set-up: dose 1-3 mg/kg, route intravenous; settings: in vivo
[18] = molecular target: Sigma non-opioid intracellular receptor 1 (Homo sapiens, UniProt Q99720); test: Inhibition of sigma-1 receptor (unknown origin)
Sigma non-opioid intracellular receptor 1, sequence (Q99720 whole entry): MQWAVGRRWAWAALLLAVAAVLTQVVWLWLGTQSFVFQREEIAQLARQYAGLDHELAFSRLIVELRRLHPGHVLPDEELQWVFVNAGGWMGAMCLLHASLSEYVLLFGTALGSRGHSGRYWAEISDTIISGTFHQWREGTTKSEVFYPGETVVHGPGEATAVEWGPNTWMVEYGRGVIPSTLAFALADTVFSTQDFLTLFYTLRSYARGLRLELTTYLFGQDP

[19] = Fraction unbound in dog plasma by equilibrium dialysis technique; assay type: ADME, cell-free, Canis lupus familiaris
[20] = Half life in rat at 1 to 3 mg/kg, po; assay type: ADME, organism-based; set-up: dose 1-3 mg/kg, route oral; settings: in vivo
[21] = Clearance in rat; assay type: ADME, organism-based; settings: in vivo
[22] = Drug metabolism in dog hepatocytes assessed as compound remaining by LC-MS/MS analysis; assay type: ADME, cell-based, Canis lupus familiaris, Hepatocyte
[23] = Fraction unbound in human plasma by equilibrium dialysis technique; assay type: ADME, cell-free
[24] = Plasma clearance in mouse at 1 to 3 mg/kg; assay type: ADME, organism-based; set-up: dose 1-3 mg/kg
[25] = molecular target: T4, 11-beta-hydroxysteroid dehydrogenase 1; test: Inhibition of 11beta-HSD1 in human adipocytes assessed as conversion of [3H]-cortisone to [3H]-cortisol by scintillation counting analysis; assay type: cell-based

## CSc1nc(N2C[C@@H]3[C@H](C2)[C@H]3C(=O)O)ccc1C(=O)NC12CC3CC(CC(C3)C1)C2
CYP1A2
  inhibition at 10 µM: < 25%
[1]
  pIC50: < 4.52
[2]
  inhibition: 20%
[3]
  Stability: 52.8%
[4]
  Stability: 82%
[5]
  hepatocyte CLint: 6 µL/min/1e6 cells
L5178Y
  Activity: Non-toxic
CYP3A4
  inhibition at 10 µM: < 25%
[6]
  fraction unbound: 0.017
Mus musculus
  inhibition: Active
[7]
  Papp B→A at 10 µM: 13 ×10⁻⁶ cm/s
[8]
  half-life: 2.5 h
[9]
  fraction unbound: 0.023
[10]
  Vd: 1.2 L/kg
[11]
  Vd: 0.9 L/kg
[12]
  pIC50: 8.22
[13]
  pIC50: 6.92
[14]
  half-life: 27 h
[15]
  clearance: 1 mL/min/kg
[16]
  dose excreted: 7.6%
[17]
  half-life: 4.3 h
[18]
  pIC50: 4.52
[19]
  fraction unbound: 0.015
[20]
  half-life: 4.3 h
[21]
  clearance: 6 mL/min/kg
[22]
  Stability: 92%
[23]
  fraction unbound: 0.011
[24]
  clearance: 9 mL/min/kg
[25]
  pIC50: 8.40
